Results on three compounds are retold here after US9284320B2, “Ticagrelor adducts with divalent metal salts” (Lek Pharmaceuticals d.d., priority 2012, dated 2016).

For data set [1] the following is noted: general statement in the description; cited from earlier work.
The nature of data set [2]: Physical stability at room temperature (DSC), adduct compared to amorphous TCG. Type of data set: physicochemical. The method, then:
The so obtained Ia was left at room temperature in a closed vial to test physical stability. DSC analysis was performed after 21 days (FIG. 2) and after 31 days (FIG. 3).
DSC analysis of a sample was performed immediately (FIG. 4). Another sample of the so obtained Ia was left at room temperature to test physical stability.
TCG (0.52 g) was dissolved in 55 mL of aqueous ethanol (50 vol %) with the aid of ultrasonic irradiation. To the solution 33 mL water was poured at once and the obtained turbid mixture was frozen immediately in liquid nitrogen. The material was then lyophilized for 72 h at ˜0.8 mbar. DSC analysis of a sample was performed immediately (FIG. 6). Another sample of the so obtained amorphous TCG was left at room temperature to test physical stability.
Conditions for obtaining DSC thermograms: Thermograms were obtained with Mettler Toledo DSC822e differential scanning calorimeter. The sample (1-10 mg) was placed in an unsealed aluminium pan with a hole and heated at 10° C./min in the temperature range from 30° C. to 250° C.

Data set [3] is described as follows: Hygroscopicity observed on isolation of the adduct. Type of data set: physicochemical. Conditions: on air, after filtration under nitrogen. The method, then: To a solution of TCG (0.30 g) in dry MeCN (4 mL) at 60° C. MgCl2 (60 mg) was added in one portion, and the resulting reaction mixture was stirred at 60° C. for 16 h.
To a solution of TCG (0.20 g) in dry MeCN (5 mL) at 50° C. MgBr2 (74 mg) was added in one portion, and the resulting reaction mixture was stirred at 50° C. for 15 min.

Consider `CCCSc1nc(N[C@@H]2C[C@H]2c2ccc(F)c(F)c2)c2nnn([C@@H]3C[C@H](OCCO)[C@@H](O)[C@H]3O)c2n1` [Ticagrelor, 3-[7-[[(1R,2S)-2-(3,4-difluorophenyl)cyclopropyl]amino]-5-(propylthio)-3H-1,2,3-triazolo[4,5-d]pyrimidin-3-yl]-5-(2-hydroxyethoxy)-(1S,2S,3R,5S)-1,2-cyclopentanediol], for which the solubility in water result in data set [1] is “low solubility in water”.

Take `CCCSc1nc(N[C@@H]2C[C@H]2c2ccc(F)c(F)c2)c2nnn([C@@H]3C[C@H](OCCO)[C@@H](O)[C@H]3O)c2n1` [amorphous basic ticagrelor]: in data set [2], the “chemical and physical stability (conversion of amorphous state to crystalline form)” value was “quickly converts to the more stable crystalline forms”.

`CCCSc1nc(N[C@@H]2C[C@H]2c2ccc(F)c(F)c2)c2nnn([C@@H]3C[C@H](OCCO)[C@@H](O)[C@H]3O)c2n1` [Ib]: the hygroscopicity entry in data set [3] is listed as “hygroscopic on air”.
